Activity calls are given as the source filed them.
Columns and labels:
Danio rerio [1] = species on record: Danio rerio; assay: Toxicity against zebrafish embryo assessed as unhatched embryos at 5 ug/ml measured at 96 hrs post fertilization by inverted microscopic analysis; assay type: organism-based; settings: in vivo
Danio rerio [2] = species on record: Danio rerio; assay: Toxicity against zebrafish embryo assessed as effect on eyes at 5 ug/ml measured at 96 hrs post fertilization by inverted microscopic analysis; assay type: organism-based; settings: in vivo
Danio rerio [3] = species on record: Danio rerio; assay: Toxicity against zebrafish embryo assessed as unhatched embryos at 2.5 ug/ml measured at 96 hrs post fertilization by inverted microscopic analysis; assay type: organism-based; settings: in vivo
Candida albicans [4] = assay: Induction of DNA intercalation with Candida albicans genomic DNA at 25 ug/ml after 12 hrs by ethidium bromide staining based gel electrophoresis method
[5] = test system: Trichophyton mentagrophytes; assay: Antifungal activity against Trichophyton mentagrophytes DMT4 by broth dilution method; assay type: functional
Microsporum canis = assay: Antifungal activity against Microsporum canis DMT2 by broth dilution method; assay type: functional
Danio rerio [6] = species on record: Danio rerio; assay: Toxicity against zebrafish embryo assessed as effect on notochord at 10 ug/ml measured at 96 hrs post fertilization by inverted microscopic analysis; assay type: organism-based; settings: in vivo
Fusarium oxysporum = assay: Antifungal activity against Fusarium oxysporum AB18 by broth dilution method; assay type: functional
Candida albicans [7] = assay: Induction of apoptosis in Candida albicans CA5 assessed as nuclear condensation at MIC measured after 2 hrs by concavaline-FITC/PI/DAPI-staining based fluorescence microscopic analysis relative to DMSO control; assay type: functional, organism-based
Danio rerio [8] = species on record: Danio rerio; assay: Toxicity against zebrafish embryo assessed as effect on heart beat at 10 ug/ml measured at 96 hrs post fertilization by inverted microscopic analysis; assay type: organism-based; settings: in vivo
Danio rerio [9] = assay: Toxicity against zebrafish embryo assessed as pericardial edema at 10 ug/ml measured at 96 hrs post fertilization by inverted microscopic analysis; assay type: organism-based; settings: in vivo
Danio rerio [10] = species on record: Danio rerio; assay: Toxicity against zebrafish embryo assessed as effect on heart beat at 2.5 ug/ml measured at 96 hrs post fertilization by inverted microscopic analysis; assay type: organism-based; settings: in vivo
Candida albicans [11] = assay: Antibiofilm activity against Candida albicans ATCC 10231 assessed as inhibition of hyphae formation at MIC after 24 hrs by concanavalin A-FITC-staining based fluorescence microscopic analysis; assay type: functional, organism-based
Candida albicans [12] = assay: Antifungal activity against Candida albicans ATCC 10231 by broth dilution method; assay type: functional
[13] = Hemolytic effect in sheep RBC assessed as release of hemoglobin at MIC after 1 hr; assay type: ADME, cell-based, Ovis aries, Erythrocyte; settings: sheep red blood cells, read-out: Activity
Danio rerio [14] = species on record: Danio rerio; assay: Toxicity against zebrafish embryo assessed as effect on notochord at 5 ug/ml measured at 96 hrs post fertilization by inverted microscopic analysis; assay type: organism-based; settings: in vivo
Danio rerio [15] = assay: Toxicity against zebrafish embryo assessed as yolk edema at 2.5 ug/ml measured at 96 hrs post fertilization by inverted microscopic analysis; assay type: organism-based; settings: in vivo
Danio rerio [16] = species on record: Danio rerio; assay: Toxicity against zebrafish embryo assessed as normal embryos at 10 ug/ml measured at 96 hrs post fertilization by inverted microscopic analysis; assay type: organism-based; settings: in vivo
Candida albicans [17] = assay: Antibiofilm activity against Candida albicans assessed as inhibition of Spider medium-induced hyphae formation at sub-MIC after 24 hrs by propidium iodide and FITC-conjugated concanavaline A staining based fluorescence microscopy; assay type: functional, organism-based
[18] = Toxicity against zebrafish embryo assessed as dead embryos at 2.5 ug/ml measured at 96 hrs post fertilization by inverted microscopic analysis; assay type: organism-based, Danio rerio; settings: read-out: Activity
Danio rerio [19] = species on record: Danio rerio; assay: Toxicity against zebrafish embryo assessed as teratogenic embryos at 25 ug/ml measured at 96 hrs post fertilization by inverted microscopic analysis; assay type: organism-based; settings: in vivo
Candida parapsilosis = assay: Antibiofilm activity against Candida parapsilosis C27 assessed as inhibition of hyphae formation at MIC after 24 hrs by concanavalin A-FITC-staining based fluorescence microscopic analysis; assay type: functional, organism-based
Danio rerio [20] = species on record: Danio rerio; assay: Toxicity against zebrafish embryo assessed as effect on heart beat at 5 ug/ml measured at 96 hrs post fertilization by inverted microscopic analysis; assay type: organism-based; settings: in vivo
Pichia kudriavzevii [21] = assay: Antibiofilm activity against 48 hrs pre-formed Candida krusei ATCC 34135 assessed as inhibition of hyphae formation at MIC after 24 hrs by concanavalin A-FITC-staining based fluorescence microscopic analysis; assay type: functional, organism-based
Danio rerio [22] = species on record: Danio rerio; assay: Toxicity against zebrafish embryo assessed as skeletal deformities at 10 ug/ml measured at 96 hrs post fertilization by inverted microscopic analysis; assay type: organism-based; settings: in vivo
Danio rerio [23] = species on record: Danio rerio; assay: Toxicity against zebrafish embryo assessed as effect on tail tip at 10 ug/ml measured at 96 hrs post fertilization by inverted microscopic analysis; assay type: organism-based; settings: in vivo
Candida albicans [24] = assay: Antifungal activity against Candida albicans CA5 assessed as fungal growth at sub-MIC measured over 12 hrs by time-kill dependence-based spectrophotometric analysis relative to DMSO control; assay type: functional
[25] = Hemolytic effect in sheep RBC assessed as release of hemoglobin at cytotoxic IC50 after 1 hr; assay type: cell-based, Ovis aries, Erythrocyte; settings: sheep red blood cells, read-out: Activity
[26] = Selectivity index, ratio of IC50 for human MRC5 cell to MIC for Candida albicans CA5
Pichia kudriavzevii [27] = assay: Antibiofilm activity against Candida krusei ATCC 34135 assessed as inhibition of hyphae formation at MIC after 24 hrs by concanavalin A-FITC-staining based fluorescence microscopic analysis; assay type: functional, organism-based
Danio rerio [28] = assay: Toxicity against zebrafish embryo assessed as yolk edema at 25 ug/ml measured at 96 hrs post fertilization by inverted microscopic analysis; assay type: organism-based; settings: in vivo
[29] = Induction of membrane damage in PC/PS liposome assessed as calcein release at MIC after 30 mins by fluorescence-based liposome leakage assay; assay type: functional
Danio rerio [30] = species on record: Danio rerio; assay: Toxicity against zebrafish embryo assessed as effect on eyes at 25 ug/ml measured at 96 hrs post fertilization by inverted microscopic analysis; assay type: organism-based; settings: in vivo
Danio rerio [31] = species on record: Danio rerio; assay: Toxicity against zebrafish embryo assessed as effect on notochord at 25 ug/ml measured at 96 hrs post fertilization by inverted microscopic analysis; assay type: organism-based; settings: in vivo
Danio rerio [32] = species on record: Danio rerio; assay: Toxicity against zebrafish embryo assessed as effect on heart beat at 25 ug/ml measured at 96 hrs post fertilization by inverted microscopic analysis; assay type: organism-based; settings: in vivo
Danio rerio [33] = species on record: Danio rerio; assay: Toxicity against zebrafish embryo assessed as effect on otoliths at 25 ug/ml measured at 96 hrs post fertilization by inverted microscopic analysis; assay type: organism-based; settings: in vivo
Danio rerio [34] = species on record: Danio rerio; assay: Toxicity against zebrafish embryo assessed as skeletal deformities at 25 ug/ml measured at 96 hrs post fertilization by inverted microscopic analysis; assay type: organism-based; settings: in vivo
Danio rerio [35] = assay: Toxicity against zebrafish embryo assessed as pericardial edema at 25 ug/ml measured at 96 hrs post fertilization by inverted microscopic analysis; assay type: organism-based; settings: in vivo
Danio rerio [36] = species on record: Danio rerio; assay: Toxicity against zebrafish embryo assessed as head malformation at 25 ug/ml measured at 96 hrs post fertilization by inverted microscopic analysis; assay type: organism-based; settings: in vivo
Danio rerio [37] = species on record: Danio rerio; assay: Toxicity against zebrafish embryo assessed as effect on tail tip at 50 ug/ml measured at 96 hrs post fertilization by inverted microscopic analysis; assay type: organism-based; settings: in vivo
Danio rerio [38] = assay: Toxicity against zebrafish embryo assessed as yolk edema at 50 ug/ml measured at 96 hrs post fertilization by inverted microscopic analysis; assay type: organism-based; settings: in vivo
Danio rerio [39] = species on record: Danio rerio; assay: Toxicity against zebrafish embryo assessed as effect on tail tip at 25 ug/ml measured at 96 hrs post fertilization by inverted microscopic analysis; assay type: organism-based; settings: in vivo
Danio rerio [40] = species on record: Danio rerio; assay: Toxicity against zebrafish embryo assessed as effect on blood circulation at 25 ug/ml measured at 96 hrs post fertilization by inverted microscopic analysis; assay type: organism-based; settings: in vivo
Danio rerio [41] = species on record: Danio rerio; assay: Toxicity against zebrafish embryo assessed as growth retardation at 25 ug/ml measured at 96 hrs post fertilization by inverted microscopic analysis; assay type: organism-based; settings: in vivo
Danio rerio [42] = species on record: Danio rerio; assay: Toxicity against zebrafish embryo assessed as unhatched embryos at 25 ug/ml measured at 96 hrs post fertilization by inverted microscopic analysis; assay type: organism-based; settings: in vivo

Cc1ccc(-c2ccc(/C=N/NC(=N)N)s2)cc1.Cl
100%: Activity (Danio rerio [9])
6.67%: Activity (Danio rerio [22])
7.8 µg/mL: MIC (Fusarium oxysporum)
10%: mortality at 96 h, 2.5 ug/ml [18]
1.56 µg/mL: MIC [5] | MIC (Microsporum canis)
0%: Activity (Danio rerio [1]) | Activity (Danio rerio [2]) | Activity (Danio rerio [3]) | Activity (Danio rerio [6]) | Activity (Danio rerio [8]) | Activity (Danio rerio [10]) | Activity (Danio rerio [14]) | Activity (Danio rerio [15]) | Activity (Danio rerio [16]) | Activity (Danio rerio [19]) | Activity (Danio rerio [20]) | Activity (Danio rerio [23])
0.9 µg/mL: MIC (Candida albicans [12])
active: Activity (Candida albicans [4]) | Activity (Candida albicans [11]) | Activity (Candida albicans [17]) | Activity (Candida parapsilosis) | Activity (Pichia kudriavzevii [21]) | Activity (Pichia kudriavzevii [27])
50%: Activity (Candida albicans [24])
5: Selectivity Index [26]
inactive: Activity (Candida albicans [7])
≤ 10%: hemolysis at 1 h [13] | hemolysis at 1 h [25]

Cl.Cl.N=C(N)N/N=C/c1ccc(-c2ccc(/C=N/NC(=N)N)s2)cc1
inactive: Activity (Candida albicans [7]) | Activity (Pichia kudriavzevii [21])
> 250 µg/mL: MIC (Fusarium oxysporum)
20: Selectivity Index [26]
active: Activity (Candida albicans [4]) | Activity (Candida albicans [11]) | Activity (Candida albicans [17]) | Activity (Candida parapsilosis) | Activity (Pichia kudriavzevii [27])
0%: Activity (Danio rerio [1]) | Activity (Danio rerio [2]) | Activity (Danio rerio [3]) | Activity (Danio rerio [28]) | Activity (Danio rerio [6]) | Activity (Danio rerio [8]) | Activity (Danio rerio [30]) | Activity (Danio rerio [9]) | Activity (Danio rerio [31]) | Activity (Danio rerio [32]) | Activity (Danio rerio [10]) | Activity (Danio rerio [33]) | Activity (Danio rerio [34]) | Activity (Danio rerio [35]) | Activity (Danio rerio [36]) | Activity (Danio rerio [14]) | Activity (Danio rerio [15]) | Activity (Danio rerio [37]) | Activity (Danio rerio [38]) | Activity (Danio rerio [39]) | Activity (Danio rerio [40]) | mortality at 96 h, 2.5 ug/ml [18] | Activity (Danio rerio [19]) | Activity (Danio rerio [20]) | Activity (Danio rerio [41]) | Activity (Danio rerio [22]) | Activity (Danio rerio [23]) | Activity (Danio rerio [42])
0.97 µg/mL: MIC (Microsporum canis)
100%: Activity (Danio rerio [16])
8%: Activity [29]
3.9 µg/mL: MIC [5] | MIC (Candida albicans [12])

Cl.N=C(N)N/N=C/c1ccc(-c2ccc(Br)cc2)s1
0.97 µg/mL: MIC [5]
46.67%: Activity (Danio rerio [16])
0%: Activity (Danio rerio [1]) | Activity (Danio rerio [2]) | Activity (Danio rerio [3]) | Activity (Danio rerio [28]) | Activity (Danio rerio [6]) | Activity (Danio rerio [8]) | Activity (Danio rerio [30]) | Activity (Danio rerio [31]) | Activity (Danio rerio [32]) | Activity (Danio rerio [10]) | Activity (Danio rerio [33]) | Activity (Danio rerio [34]) | Activity (Danio rerio [36]) | Activity (Danio rerio [14]) | Activity (Danio rerio [15]) | Activity (Danio rerio [40]) | mortality at 96 h, 2.5 ug/ml [18] | Activity (Danio rerio [20]) | Activity (Danio rerio [41]) | Activity (Danio rerio [22]) | Activity (Danio rerio [23]) | Activity (Danio rerio [42])
26.67%: Activity (Danio rerio [19])
50%: Activity (Candida albicans [24])
100%: Activity (Danio rerio [35]) | Activity (Danio rerio [39])
≤ 10%: hemolysis at 1 h [13] | hemolysis at 1 h [25]
3.9 µg/mL: MIC (Fusarium oxysporum)
active: Activity (Candida albicans [4]) | Activity (Candida albicans [17])
3.12 µg/mL: MIC (Candida albicans [12])
0.25 µg/mL: MIC (Microsporum canis)
33.33%: Activity (Danio rerio [9])

Source: ChEMBL document CHEMBL3763135, “Synthesis and evaluation of thiophene-based guanylhydrazones (iminoguanidines) efficient against panel of voriconazole-resistant fungal isolates” (Bioorg Med Chem, 2016)
